Measurements taken from ChEMBL document CHEMBL1155344, “Synthesis of some new 1,2,4-triazoles starting from isonicotinic acid hydrazide and evaluation of their antimicrobial activities” (2009).
The source made the active and inactive calls. The calls are words filed in the database; no cut-off is given here.

Experiments:
Candida albicans [1] = test: Antimicrobial activity against Candida albicans ATCC 60193 after 18 hrs by well diffusion method; assay type: functional
Bacillus cereus [2] = test: Antimicrobial activity against Bacillus cereus 702 Roma after 18 hrs by well diffusion method; assay type: functional
Staphylococcus aureus [3] = test: Antimicrobial activity against Staphylococcus aureus ATCC 25923 after 18 hrs by well diffusion method; assay type: functional
[4] = tested on: Yersinia pseudotuberculosis; test: Antimicrobial activity against Yersinia pseudotuberculosis ATCC 911after 18 hrs by well diffusion method; assay type: functional
Escherichia coli [5] = test: Antimicrobial activity against Escherichia coli ATCC 25922 after 18 hrs by well diffusion method; assay type: functional
Enterococcus faecalis [6] = test: Antimicrobial activity against Enterococcus faecalis ATCC 29212 after 18 hrs by well diffusion method; assay type: functional
Pseudomonas aeruginosa [7] = test: Antimicrobial activity against Pseudomonas aeruginosa ATCC 27853 after 18 hrs by well diffusion method; assay type: functional
Candida tropicalis [8] = test: Antimicrobial activity against Candida tropicalis ATCC 13803 after 18 hrs by well diffusion method; assay type: functional
Candida albicans [9] = test: Antimicrobial activity against Candida albicans ATCC 60193 at 10 ug after 18 hrs by well diffusion method; assay type: functional, organism-based
Bacillus cereus [10] = test: Antimicrobial activity against Bacillus cereus 702 Roma at 10 ug after 18 hrs by well diffusion method; assay type: functional; settings: read-out: IZ
Pseudomonas aeruginosa [11] = test: Antimicrobial activity against Pseudomonas aeruginosa ATCC 27853 at 10 ug after 18 hrs by well diffusion method; assay type: functional; settings: ATCC 27853, 18 h, read-out: IZ
[12] = tested on: Yersinia pseudotuberculosis; test: Antimicrobial activity against Yersinia pseudotuberculosis ATCC 911 at 10 ug after 18 hrs by well diffusion method; assay type: functional; settings: ATCC 911, 18 h, read-out: IZ
Staphylococcus aureus [13] = test: Antimicrobial activity against Staphylococcus aureus ATCC 25923 at 10 ug after 18 hrs by well diffusion method; assay type: functional; settings: ATCC 25923, 18 h, read-out: IZ
Candida tropicalis [14] = test: Antimicrobial activity against Candida tropicalis ATCC 13803 at 10 ug after 18 hrs by well diffusion method; assay type: functional, organism-based
Escherichia coli [15] = test: Antimicrobial activity against Escherichia coli ATCC 25922 at 10 ug after 18 hrs by well diffusion method; assay type: functional; settings: ATCC 25922, 18 h, read-out: IZ
Enterococcus faecalis [16] = test: Antimicrobial activity against Enterococcus faecalis ATCC 29212 at 10 ug after 18 hrs by well diffusion method; assay type: functional; settings: ATCC 29212, 18 h, read-out: IZ
Pseudomonas aeruginosa [17] = test: Antimicrobial activity against Pseudomonas aeruginosa ATCC 27853 at 5 ug after 18 hrs by well diffusion method; assay type: functional, organism-based
Staphylococcus aureus [18] = test: Antimicrobial activity against Staphylococcus aureus ATCC 25923 at 5 ug after 18 hrs by well diffusion method; assay type: functional, organism-based
Escherichia coli [19] = test: Antimicrobial activity against Escherichia coli ATCC 25922 at 5 ug after 18 hrs by well diffusion method; assay type: functional, organism-based
Bacillus cereus [20] = test: Antimicrobial activity against Bacillus cereus 702 Roma at 5 ug after 18 hrs by well diffusion method; assay type: functional, organism-based
[21] = tested on: Yersinia pseudotuberculosis; test: Antimicrobial activity against Yersinia pseudotuberculosis ATCC 911 at 5 ug after 18 hrs by well diffusion method; assay type: functional, organism-based
Candida albicans [22] = test: Antimicrobial activity against Candida albicans ATCC 60193 at 5 ug after 18 hrs by well diffusion method; assay type: functional; settings: ATCC 60193, 18 h, read-out: IZ
Candida tropicalis [23] = test: Antimicrobial activity against Candida tropicalis ATCC 13803 at 5 ug after 18 hrs by well diffusion method; assay type: functional; settings: ATCC 13803, 18 h, read-out: IZ
Enterococcus faecalis [24] = test: Antimicrobial activity against Enterococcus faecalis ATCC 29212 at 5 ug after 18 hrs by well diffusion method; assay type: functional, organism-based

## Nn1c(-c2ccncc2)nn(CN2CCOCC2)c1=S
Candida albicans [1]
  inhibition zone (IZ): inactive
Bacillus cereus [2]
  inhibition zone (IZ): inactive
Staphylococcus aureus [3]
  inhibition zone (IZ): inactive
[4]
  inhibition zone (IZ): 13 mm
Escherichia coli [5]
  inhibition zone (IZ): 20 mm
Enterococcus faecalis [6]
  inhibition zone (IZ): inactive
Pseudomonas aeruginosa [7]
  inhibition zone (IZ): inactive
Candida tropicalis [8]
  inhibition zone (IZ): inactive

## Fc1ccc(/C=N/n2c(-c3ccncc3)n[nH]c2=S)cc1
Candida albicans [1]
  inhibition zone (IZ): 8 mm
Bacillus cereus [2]
  inhibition zone (IZ): 7 mm
Staphylococcus aureus [3]
  inhibition zone (IZ): inactive
[4]
  inhibition zone (IZ): inactive
Escherichia coli [5]
  inhibition zone (IZ): inactive
Enterococcus faecalis [6]
  inhibition zone (IZ): inactive
Pseudomonas aeruginosa [7]
  inhibition zone (IZ): inactive
Candida tropicalis [8]
  inhibition zone (IZ): 8 mm

## CC1(C)S[C@@H]2[C@H](NC(=O)[C@H](N)c3ccccc3)C(=O)N2[C@H]1C(=O)O [AMPICILLIN]
Candida albicans [9]
  inhibition zone (IZ): inactive
Bacillus cereus [10]
  zone of inhibition at 10 µg/disc: 15 mm
Pseudomonas aeruginosa [11]
  zone of inhibition at 10 µg/disc: 18 mm
[12]
  zone of inhibition at 10 µg/disc: 18 mm
Staphylococcus aureus [13]
  zone of inhibition at 10 µg/disc: 35 mm
Candida tropicalis [14]
  inhibition zone (IZ): inactive
Escherichia coli [15]
  zone of inhibition at 10 µg/disc: 10 mm
Enterococcus faecalis [16]
  zone of inhibition at 10 µg/disc: 10 mm

## CN1CCN(Cn2nc(-c3ccncc3)n(N)c2=S)CC1
Candida albicans [1]
  inhibition zone (IZ): inactive
Bacillus cereus [2]
  inhibition zone (IZ): 22 mm
Staphylococcus aureus [3]
  inhibition zone (IZ): 28 mm
[4]
  inhibition zone (IZ): 24 mm
Escherichia coli [5]
  inhibition zone (IZ): 30 mm
Enterococcus faecalis [6]
  inhibition zone (IZ): 25 mm
Pseudomonas aeruginosa [7]
  inhibition zone (IZ): 35 mm
Candida tropicalis [8]
  inhibition zone (IZ): inactive

## Nn1c(-c2ccncc2)nn(CNCCN2CCOCC2)c1=S
Candida albicans [1]
  inhibition zone (IZ): inactive
Bacillus cereus [2]
  inhibition zone (IZ): inactive
Staphylococcus aureus [3]
  inhibition zone (IZ): inactive
[4]
  inhibition zone (IZ): inactive
Escherichia coli [5]
  inhibition zone (IZ): inactive
Enterococcus faecalis [6]
  inhibition zone (IZ): inactive
Pseudomonas aeruginosa [7]
  inhibition zone (IZ): inactive
Candida tropicalis [8]
  inhibition zone (IZ): inactive

## S=c1[nH]nc(-c2ccncc2)o1
Candida albicans [1]
  inhibition zone (IZ): 25 mm
Bacillus cereus [2]
  inhibition zone (IZ): inactive
Staphylococcus aureus [3]
  inhibition zone (IZ): 10 mm
[4]
  inhibition zone (IZ): inactive
Escherichia coli [5]
  inhibition zone (IZ): inactive
Enterococcus faecalis [6]
  inhibition zone (IZ): inactive
Pseudomonas aeruginosa [7]
  inhibition zone (IZ): inactive
Candida tropicalis [8]
  inhibition zone (IZ): 30 mm

## Nn1c(S)nnc1-c1ccncc1
Candida albicans [1]
  inhibition zone (IZ): inactive
Bacillus cereus [2]
  inhibition zone (IZ): 20 mm
Staphylococcus aureus [3]
  inhibition zone (IZ): 34 mm
[4]
  inhibition zone (IZ): 30 mm
Escherichia coli [5]
  inhibition zone (IZ): 34 mm
Enterococcus faecalis [6]
  inhibition zone (IZ): 24 mm
Pseudomonas aeruginosa [7]
  inhibition zone (IZ): 42 mm
Candida tropicalis [8]
  inhibition zone (IZ): inactive

## CN1CCN(Cn2nc(-c3ccncc3)n(/N=C/c3ccc(F)cc3)c2=S)CC1
Candida albicans [1]
  inhibition zone (IZ): inactive
Bacillus cereus [2]
  inhibition zone (IZ): inactive
Staphylococcus aureus [3]
  inhibition zone (IZ): inactive
[4]
  inhibition zone (IZ): inactive
Escherichia coli [5]
  inhibition zone (IZ): inactive
Enterococcus faecalis [6]
  inhibition zone (IZ): inactive
Pseudomonas aeruginosa [7]
  inhibition zone (IZ): inactive
Candida tropicalis [8]
  inhibition zone (IZ): inactive

## S=c1[nH]nc(-c2ccncc2)n1/N=C/c1c[nH]c2ccccc12
Candida albicans [1]
  inhibition zone (IZ): inactive
Bacillus cereus [2]
  inhibition zone (IZ): inactive
Staphylococcus aureus [3]
  inhibition zone (IZ): inactive
[4]
  inhibition zone (IZ): inactive
Escherichia coli [5]
  inhibition zone (IZ): inactive
Enterococcus faecalis [6]
  inhibition zone (IZ): inactive
Pseudomonas aeruginosa [7]
  inhibition zone (IZ): inactive
Candida tropicalis [8]
  inhibition zone (IZ): inactive

## CN1CCN(Cn2nc(-c3ccncc3)oc2=S)CC1
Candida albicans [1]
  inhibition zone (IZ): inactive
Bacillus cereus [2]
  inhibition zone (IZ): 17 mm
Staphylococcus aureus [3]
  inhibition zone (IZ): 17 mm
[4]
  inhibition zone (IZ): 15 mm
Escherichia coli [5]
  inhibition zone (IZ): 23 mm
Enterococcus faecalis [6]
  inhibition zone (IZ): 17 mm
Pseudomonas aeruginosa [7]
  inhibition zone (IZ): 28 mm
Candida tropicalis [8]
  inhibition zone (IZ): inactive

## CCSc1nnc(-c2ccncc2)n1N
Candida albicans [1]
  inhibition zone (IZ): 8 mm
Bacillus cereus [2]
  inhibition zone (IZ): 20 mm
Staphylococcus aureus [3]
  inhibition zone (IZ): 25 mm
Escherichia coli [5]
  inhibition zone (IZ): 30 mm
Enterococcus faecalis [6]
  inhibition zone (IZ): 25 mm
Pseudomonas aeruginosa [7]
  inhibition zone (IZ): 25 mm
Candida tropicalis [8]
  inhibition zone (IZ): 8 mm

## S=c1oc(-c2ccncc2)nn1CNCCN1CCOCC1
Candida albicans [1]
  inhibition zone (IZ): inactive
Bacillus cereus [2]
  inhibition zone (IZ): 14 mm
Staphylococcus aureus [3]
  inhibition zone (IZ): 14 mm
[4]
  inhibition zone (IZ): 13 mm
Escherichia coli [5]
  inhibition zone (IZ): 13 mm
Enterococcus faecalis [6]
  inhibition zone (IZ): 15 mm
Pseudomonas aeruginosa [7]
  inhibition zone (IZ): 13 mm
Candida tropicalis [8]
  inhibition zone (IZ): inactive

## CCSc1nnc(-c2ccncc2)o1
Candida albicans [1]
  inhibition zone (IZ): 7 mm
Bacillus cereus [2]
  inhibition zone (IZ): 18 mm
Staphylococcus aureus [3]
  inhibition zone (IZ): 25 mm
[4]
  inhibition zone (IZ): 22 mm
Escherichia coli [5]
  inhibition zone (IZ): 30 mm
Enterococcus faecalis [6]
  inhibition zone (IZ): 25 mm
Pseudomonas aeruginosa [7]
  inhibition zone (IZ): 25 mm
Candida tropicalis [8]
  inhibition zone (IZ): 7 mm

## OC(Cn1cncn1)(Cn1cncn1)c1ccc(F)cc1F [FLUCONAZOLE]
Pseudomonas aeruginosa [17]
  inhibition zone (IZ): inactive
Staphylococcus aureus [18]
  inhibition zone (IZ): inactive
Escherichia coli [19]
  inhibition zone (IZ): inactive
Bacillus cereus [20]
  inhibition zone (IZ): inactive
[21]
  inhibition zone (IZ): inactive
Candida albicans [22]
  zone of inhibition at 5 µg/disc: 25 mm
Candida tropicalis [23]
  zone of inhibition at 5 µg/disc: 25 mm
Enterococcus faecalis [24]
  inhibition zone (IZ): inactive
